These are literature values, as cited in patent US9259392B2, “Cochleate compositions directed against expression of proteins” (Rutgers, The State University of New Jersey, priority 2003, dated 2016).

pIC50: −log10 of the molar value.

The term pIC50 denotes the IC50 on a negative log10 scale, so that one unit is a factor of ten.

For data set [1], the system named is pathogenic fungi. The settings on record: cited from earlier work.
Data set [2] concerns the target Aspergillus fumigatus H^+-ATPase. The settings on record: cited from earlier work.

For `CCN1CCC(O)(C=Cc2ccc(Cl)cc2)C(C(=O)C=Cc2ccc(Cl)cc2)C1.Cl` (centres unmarked) [NC1175, 3-[3-(4-chlorophenyl)-2-propenoyl]-4-[2-(4-chlorophenyl)vinylene]-1-ethyl-4-piperidinol hydrochloride], in data set [1], the antifungal activity result is given as “antifungal activity against a wide spectrum of pathogenic fungi”.

Consider `[O]=[V]([OH])([OH])[OH]` [orthovanadate], for which the negative logarithm of the IC50 (pIC50) in data set [2] is about 6.10.
